{
  "source": "patent EP2252246B1",
  "about": "“CHEMOPROTECTIVE METHODS AND COMPOSITIONS” (BIONUMERIK PHARMACEUTICALS, INC., priority 2008, dated 2009)",
  "key": {"tubulin": {"system": "tubulin", "settings": "paclitaxel 6 µM; cited from earlier work"}, "[1]": {"system": "patients with advanced non-small cell lung carcinoma (NSCLC)", "assay": "Japan Phase III Clinical Trial (paclitaxel + cisplatin, placebo-controlled; PNQ primary evaluation)", "type": "in vivo, human", "settings": "paclitaxel/Tavocept/cisplatin vs paclitaxel/saline placebo/cisplatin, NSCLC patients (Figure 5)", "method": "The Japan Phase III Clinical Trial was conducted as a double-blind study because peripheral neuropathy is diagnosed based on subjective symptoms evaluated through clinical interviews, lab tests, and the like. Accordingly, evaluations by both physicians and patients are highly important. […] A placebo was used as control since there is no established therapy or drug for preventing peripheral neuropathy. Because the severity of peripheral neuropathy is evaluated based on patients' reports (i.e., subjective symptoms), the Peripheral Neuropathy Questionnaire (PNQ^© was used in primary evaluation. The CIPN-20 questionnaire and the National Cancer Institute - Common Toxicity Criteria (NCI-CTC) were used in secondary evaluation. The incidence and severity of adverse reactions, time to their onset, etc. and the like, were compared between patients treated with Tavocept™ and those given a placebo using the aforementioned methods.\nThe Primary Endpoint of the Japan Phase III Clinical Trial described in the present invention was specifically designed to test the hypothesis of whether chemotherapy-induced intermittent peripheral neuropathy would occur. […] The results illustrated in Figure 3 indicate that intermittent peripheral neuropathy was specifically identified and measured in the Japan Phase III Clinical Trial. […]"}, "[2]": {"system": "paclitaxel-induced neuropathy model", "assay": "Paclitaxel-induced thermoparesthesia in the paclitaxel-induced neuropathy model", "type": "in vivo, rats", "settings": "for maximum inhibition rate (thermoparesthesia): paclitaxel 6 mg/kg i.v. 5-times every other day"}, "[3]": {"settings": "human, in vivo", "procedure": "• Figure 1 illustrates a comparison of the number of hypersensitivity Adverse Events between groups of patients in whom 2,2'-dithio-bis-ethane sulfonate or a placebo was infused over (1) 30 minutes, (2) 30 and 45 minutes, or (3) 45 minutes. […] Drug concentrations of disodium 2,2'-dithio-bis-ethane sulfonate administered were 200 mg/mL infused over 30 minutes, 200 mg/mL and 100 mg/mL infused over 30 & 45 minutes, respectively, and 100 mg/mL infused over 45 minutes.\nThe patients' body surface area (BSA) was determined based on the use of standard methods that are customarily used for such purposes, including standardized nomograms and calculations that utilize the individual height and weight data from each patient.\nFigure 1 illustrates a comparison of the number of hypersensitivity Adverse Events between groups of patients in whom 2,2'-dithio-bis-ethane sulfonate or a placebo was infused over (1) 30 minutes, (2) 30 minutes and 45 minutes, or (3) 45 minutes. In addition, the total number of hypersensitivity Adverse Events, the mean time to the first hypersensitivity Adverse Event, and a variety of the types of hypersensitivity Adverse Events were also shown.\nDrug concentrations administered were about 200 mg/mL infused over about 30 minutes, about 200 mg/mL and about 100 mg/mL infused over about 30 & about 45 minutes, respectively, and about 100 mg/mL infused over about 45 minutes."}},
  "data": [
    {"compound": "O=S(=O)([O-])CCSSCCS(=O)(=O)[O-].[Na+].[Na+]", "note": "[Tavocept, disodium 2,2'-dithio-bis-ethane sulfonate]", "values": [
      {"measurement": "concentration that inhibits tubulin polymerization induced by paclitaxel", "setting": "tubulin", "result": 6, "unit": "mM"},
      {"measurement": "reduction in severe (Grade D or E) intermittent or cumulative peripheral neuropathy", "setting": "[1]", "result": "~50", "unit": "%"},
      {"measurement": "maximum inhibition rate (thermoparesthesia)", "setting": "[2]; 1,000 mg/kg", "result": 41.7, "unit": "%"},
      {"measurement": "inhibition rates of thermoparesthesia", "setting": "[2]; 2,000 mg/kg i.v. immediately after paclitaxel 12 mg/kg i.p. once a week for 5 weeks", "result": "19.2-34.1%"},
      {"measurement": "maximum inhibition rate (thermoparesthesia)", "setting": "[2]; 2,000 mg/kg", "result": 41.5, "unit": "%"},
      {"measurement": "reduction in hypersensitivity Adverse Events in the treatment population", "setting": "[3]", "result": "≤ 57", "unit": "%"}
    ]}
  ]
}
